Reference: the supplement of paper PMC11208160

assay: recombinant UMI read abundance after kanamycin selection (control-corrected) (log10(CPM+1)); higher = more efficient recombination; extreme values may be limits of the assay; sequences stand for … in AGTGCAGAGAAAATCGGCCAGTTTTCTCTGCCTGCAGTCCGCATGCCGTGGGACCCCTTGGGTTCTAACCTGTTGCCTAGATTTATGCAGCGGACTGCCTTTCTCCCAAAGTGATAAACCGG…AGGTTGGTTTCACT; site = the 11-nt donor
Description: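 Pooled E. coli donor-specificity screen for the IS621 bridge recombinase. Each library member carries a reprogrammed 11-nt donor and a full-length LE bridge RNA expressed in cis from the natural promoter, with a paired donor-binding loop (8-nt LDG + 4-nt RDG) and a target-binding loop fixed to T5. It is co-electroporated with a T5 target plasmid; recombinase is induced with 0.07 mM IPTG and recombinants are selected on kanamycin. UMIs are counted as CPM, averaged over two biological replicates and corrected by the unselected control. Molecule = full bridge RNA written as DNA, built from the T5 scaffold: LDG = donor specificity nt 1-8, RDG = reverse complement of nt 8-11.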
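Further: IS621 bridge recombinase in Escherichia coli cells against a fixed T5 target plasmid.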

First: ACTACACCATGGACCGGTTTTCCCGGTAATCCGTATTTGGT (site ACTACACCTAC)
Second: ACTACCTCATGGACCGGTTTTCCCGGTAATCCGTATTTGTT (site ACTACCTCTAA)
The “recombinant UMI read abundance (log10)” value of the first is lower: 0 for the first, 1.19 for the second.

“ACTACTGCATGGACCGGTTTTCCCGGTAATCCGTATTTGCC (site ACTACTGCTGG)” and “ACTACTGCATGGACCGGTTTTCCCGGTAATCCGTATTTGCC (site CCTACTGCTGG)” are within 0.2 log units of each other in “recombinant UMI read abundance (log10)” value: 1.54 for the first, 1.45 for the second.

“ACTACTGCATGGACCGGTTTTCCCGGTAATCCGTATTTGCC (site GCTACTGCTGG)” and “ACTACTGCATGGACCGGTTTTCCCGGTAATCCGTATTTGCC (site TCTACTGCTGG)” are within 0.2 log units of each other in “recombinant UMI read abundance (log10)” value: 0.946 for the first, 1.03 for the second.

“ACTAGACCATGGACCGGTTTTCCCGGTAATCCGTATTTGAG (site ACTAGAACTCT)” and “ACTAGACCATGGACCGGTTTTCCCGGTAATCCGTATTTGAG (site ACTAGACCTCT)” are within 0.2 log units of each other in “recombinant UMI read abundance (log10)” value: 0.103 for the first, 0.0176 for the second.

Compared with “ACTAGACCATGGACCGGTTTTCCCGGTAATCCGTATTTGAG (site ACTAGAGCTCT)”, “ACTAGACCATGGACCGGTTTTCCCGGTAATCCGTATTTGAG (site ACTAGATCTCT)” is higher in “recombinant UMI read abundance (log10)” value: 0.0203 for the first, 1.02 for the second.

Compared with “ACTAGAGCATGGACCGGTTTTCCCGGTAATCCGTATTTGGT (site ACTAGAGCTAC)”, “ACTAGAGCATGGACCGGTTTTCCCGGTAATCCGTATTTGGT (site ACTAGCGCTAC)” is lower in “recombinant UMI read abundance (log10)” value: 1.72 for the first, 0.398 for the second.

Compared with “ACTAGAGCATGGACCGGTTTTCCCGGTAATCCGTATTTGGT (site ACTAGGGCTAC)”, “ACTAGAGCATGGACCGGTTTTCCCGGTAATCCGTATTTGGT (site ACTAGTGCTAC)” is lower in “recombinant UMI read abundance (log10)” value: 0.647 for the first, 0.4 for the second.

Going from “ACTAGTACATGGACCGGTTTTCCCGGTAATCCGTATTTGAC (site ACTAGTACTGT)” to “ACTAGTCCATGGACCGGTTTTCCCGGTAATCCGTATTTGGT (site ACTAGTACTAC)”, the “recombinant UMI read abundance (log10)” value falls from 2.14 to 0.0112.

“ACTAGTCCATGGACCGGTTTTCCCGGTAATCCGTATTTGGT (site ACTAGTCCTAC)” and “ACTAGTCCATGGACCGGTTTTCCCGGTAATCCGTATTTGGT (site ACTAGTGCTAC)” are within 0.2 log units of each other in “recombinant UMI read abundance (log10)” value: 0.00473 for the first, 0.00689 for the second.

“ACTAGTCCATGGACCGGTTTTCCCGGTAATCCGTATTTGGT (site ACTAGTTCTAC)” and “ACTAGTGCATGGACCGGTTTTCCCGGTAATCCGTATTTGGC (site ACTAGTGCTAC)” are within 0.2 log units of each other in “recombinant UMI read abundance (log10)” value: 0.244 for the first, 0.0845 for the second.

Going from “ACTAGTGCATGGACCGGTTTTCCCGGTAATCCGTATTTGGC (site ACTAGTGCTCC)” to “ACTAGTGCATGGACCGGTTTTCCCGGTAATCCGTATTTGGC (site ACTAGTGCTGC)”, the “recombinant UMI read abundance (log10)” value rises from 0.0166 to 2.6.

“ACTAGTGCATGGACCGGTTTTCCCGGTAATCCGTATTTGGC (site ACTAGTGCTTC)” and “ACTAGTGCATGGACCGGTTTTCCCGGTAATCCGTATTTGGT (site AATAGTGCTAC)” are within 0.2 log units of each other in “recombinant UMI read abundance (log10)” value: 0.32 for the first, 0.282 for the second.

First: ACTAGTGCATGGACCGGTTTTCCCGGTAATCCGTATTTGGT (site ACAAGTGCTAC)
Second: ACTAGTGCATGGACCGGTTTTCCCGGTAATCCGTATTTGGT (site ACCAGTGCTAC)
The “recombinant UMI read abundance (log10)” value of the first is lower: 0.762 for the first, 1.02 for the second.

“ACTAGTGCATGGACCGGTTTTCCCGGTAATCCGTATTTGGT (site ACGAGTGCTAC)” and “ACTAGTGCATGGACCGGTTTTCCCGGTAATCCGTATTTGGT (site ACTAATGCTAC)” are within 0.2 log units of each other in “recombinant UMI read abundance (log10)” value: 0.586 for the first, 0.409 for the second.

First: ACTAGTGCATGGACCGGTTTTCCCGGTAATCCGTATTTGGT (site ACTACTGCTAC)
Second: ACTAGTGCATGGACCGGTTTTCCCGGTAATCCGTATTTGGT (site ACTAGAGCTAC)
The “recombinant UMI read abundance (log10)” value of the first is lower: 0.285 for the first, 1.08 for the second.

“ACTAGTGCATGGACCGGTTTTCCCGGTAATCCGTATTTGGT (site ACTAGCGCTAC)” and “ACTAGTGCATGGACCGGTTTTCCCGGTAATCCGTATTTGGT (site ACTAGGGCTAC)” are within 0.2 log units of each other in “recombinant UMI read abundance (log10)” value: 0.00815 for the first, 0.0226 for the second.

Compared with “ACTAGTGCATGGACCGGTTTTCCCGGTAATCCGTATTTGGT (site ACTAGTACTAC)”, “ACTAGTGCATGGACCGGTTTTCCCGGTAATCCGTATTTGGT (site ACTAGTCCTAC)” is lower in “recombinant UMI read abundance (log10)” value: 0.998 for the first, 0.0182 for the second.

Compared with “ACTAGTGCATGGACCGGTTTTCCCGGTAATCCGTATTTGGT (site ACTAGTGCTAA)”, “ACTAGTGCATGGACCGGTTTTCCCGGTAATCCGTATTTGGT (site ACTAGTGCTAC)” is higher in “recombinant UMI read abundance (log10)” value: 0.00318 for the first, 1.55 for the second.

Compared with “ACTAGTGCATGGACCGGTTTTCCCGGTAATCCGTATTTGGT (site ACTAGTGCTAG)”, “ACTAGTGCATGGACCGGTTTTCCCGGTAATCCGTATTTGGT (site ACTAGTGCTAT)” is higher in “recombinant UMI read abundance (log10)” value: 0.699 for the first, 1.2 for the second.

“ACTAGTGCATGGACCGGTTTTCCCGGTAATCCGTATTTGGT (site ACTAGTGCTCC)” and “ACTAGTGCATGGACCGGTTTTCCCGGTAATCCGTATTTGGT (site ACTAGTGCTGC)” are within 0.2 log units of each other in “recombinant UMI read abundance (log10)” value: 0.0239 for the first, 0 for the second.

Going from “ACTAGTGCATGGACCGGTTTTCCCGGTAATCCGTATTTGGT (site ACTAGTGCTTC)” to “ACTAGTGCATGGACCGGTTTTCCCGGTAATCCGTATTTGGT (site ACTAGTTCTAC)”, the “recombinant UMI read abundance (log10)” value rises from 0.0165 to 0.264.

First: ACTAGTGCATGGACCGGTTTTCCCGGTAATCCGTATTTGGT (site ACTATTGCTAC)
Second: ACTAGTGCATGGACCGGTTTTCCCGGTAATCCGTATTTGGT (site ACTCGTGCTAC)
The “recombinant UMI read abundance (log10)” value of the first is higher: 0.975 for the first, 0.265 for the second.

First: ACTAGTGCATGGACCGGTTTTCCCGGTAATCCGTATTTGGT (site ACTGGTGCTAC)
Second: ACTAGTGCATGGACCGGTTTTCCCGGTAATCCGTATTTGGT (site ACTTGTGCTAC)
The “recombinant UMI read abundance (log10)” value of the first is higher: 0.583 for the first, 0.26 for the second.

First: ACTAGTGCATGGACCGGTTTTCCCGGTAATCCGTATTTGGT (site AGTAGTGCTAC)
Second: ACTAGTGCATGGACCGGTTTTCCCGGTAATCCGTATTTGGT (site ATTAGTGCTAC)
The “recombinant UMI read abundance (log10)” value of the first is lower: 0.424 for the first, 1.01 for the second.

First: ACTAGTGCATGGACCGGTTTTCCCGGTAATCCGTATTTGGT (site CCTAGTGCTAC)
Second: ACTAGTGCATGGACCGGTTTTCCCGGTAATCCGTATTTGGT (site GCTAGTGCTAC)
The “recombinant UMI read abundance (log10)” value of the first is higher: 0.821 for the first, 0.338 for the second.

Going from “ACTAGTGCATGGACCGGTTTTCCCGGTAATCCGTATTTGGT (site TCTAGTGCTAC)” to “ACTAGTTCATGGACCGGTTTTCCCGGTAATCCGTATTTGGT (site ACTAGTACTAC)”, the “recombinant UMI read abundance (log10)” value falls from 0.86 to 0.293.

“ACTAGTTCATGGACCGGTTTTCCCGGTAATCCGTATTTGGT (site ACTAGTCCTAC)” and “ACTAGTTCATGGACCGGTTTTCCCGGTAATCCGTATTTGGT (site ACTAGTGCTAC)” are within 0.2 log units of each other in “recombinant UMI read abundance (log10)” value: 0.0335 for the first, 0.00523 for the second.

Compared with “ACTAGTTCATGGACCGGTTTTCCCGGTAATCCGTATTTGGT (site ACTAGTTCTAC)”, “ACTCCAGCATGGACCGGTTTTCCCGGTAATCCGTATTTGCG (site ACTCCAGCTCG)” is lower in “recombinant UMI read abundance (log10)” value: 1.89 for the first, 0.0064 for the second.

Compared with “ACTCCTGCATGGACCGGTTTTCCCGGTAATCCGTATTTGAC (site ACTCCTGCTGT)”, “ACTCGAACATGGACCGGTTTTCCCGGTAATCCGTATTTGAG (site ACTAGAACTCT)” is lower in “recombinant UMI read abundance (log10)” value: 0.671 for the first, 0.00419 for the second.

Compared with “ACTCGAACATGGACCGGTTTTCCCGGTAATCCGTATTTGAG (site ACTCGAACTCT)”, “ACTCGAACATGGACCGGTTTTCCCGGTAATCCGTATTTGAG (site ACTGGAACTCT)” is lower in “recombinant UMI read abundance (log10)” value: 1.16 for the first, 0.00958 for the second.

“ACTCGAACATGGACCGGTTTTCCCGGTAATCCGTATTTGAG (site ACTTGAACTCT)” and “ACTCGGCCATGGACCGGTTTTCCCGGTAATCCGTATTTGGT (site ACTCGGCCTAC)” are within 0.2 log units of each other in “recombinant UMI read abundance (log10)” value: 0.00429 for the first, 0.00855 for the second.

Going from “ACTCTCCCATGGACCGGTTTTCCCGGTAATCCGTATTTGGA (site ACTCTCCCTTC)” to “ACTGAAGCATGGACCGGTTTTCCCGGTAATCCGTATTTGTA (site ACTGAAGCTTA)”, the “recombinant UMI read abundance (log10)” value rises from 0.0237 to 2.5.

Going from “ACTGAGACATGGACCGGTTTTCCCGGTAATCCGTATTTGGT (site AATGAGACTAC)” to “ACTGAGACATGGACCGGTTTTCCCGGTAATCCGTATTTGGT (site ACTGAGACTAC)”, the “recombinant UMI read abundance (log10)” value rises from 0.158 to 1.53.

Compared with “ACTGAGACATGGACCGGTTTTCCCGGTAATCCGTATTTGGT (site AGTGAGACTAC)”, “ACTGAGACATGGACCGGTTTTCCCGGTAATCCGTATTTGGT (site ATTGAGACTAC)” is higher in “recombinant UMI read abundance (log10)” value: 0.0694 for the first, 0.541 for the second.

Compared with “ACTGATGCATGGACCGGTTTTCCCGGTAATCCGTATTTGAC (site ACTGATGCTGT)”, “ACTGCACCATGGACCGGTTTTCCCGGTAATCCGTATTTGAG (site ACTGCACCTCT)” is lower in “recombinant UMI read abundance (log10)” value: 2.08 for the first, 0.0235 for the second.

“ACTGCTACATGGACCGGTTTTCCCGGTAATCCGTATTTGGT (site ACTGCTACTAC)” and “ACTGTATCATGGACCGGTTTTCCCGGTAATCCGTATTTGCC (site ACAGTATCTTG)” are within 0.2 log units of each other in “recombinant UMI read abundance (log10)” value: 0.194 for the first, 0 for the second.
